Data as given in patent US10053453B2, “Compounds and their use as BACE inhibitors” (AstraZeneca AB, priority 2014, dated 2018).

Key:
SH-SY5Y cells = assay: sAPPβ release assay; conditions: Homo sapiens, SH-SY5Y, read-out: IC50 Cell (sAPPβ release, nM), SH-SY5Y cells, compounds incubated 16-17 h
Human BACE1 = biological target: T1, Human BACE1 (Homo sapiens, UniProt P56817); assay: Diluted TR-FRET assay; format: biochemical; conditions: 50 times less enzyme, 6.5 h reaction time at r.t.; read-out: IC50 BACE1 (dil. TR-FRET)
T1 construct: the soluble part of the human β-Secretase1 (AA1-AA460) was cloned using the BACE1(1-460)-(AVT)-Fc-pGEN-IRES-neo mammalian expression vector; AVT linker (C); made in house
T1 sequence (P56817 22-460): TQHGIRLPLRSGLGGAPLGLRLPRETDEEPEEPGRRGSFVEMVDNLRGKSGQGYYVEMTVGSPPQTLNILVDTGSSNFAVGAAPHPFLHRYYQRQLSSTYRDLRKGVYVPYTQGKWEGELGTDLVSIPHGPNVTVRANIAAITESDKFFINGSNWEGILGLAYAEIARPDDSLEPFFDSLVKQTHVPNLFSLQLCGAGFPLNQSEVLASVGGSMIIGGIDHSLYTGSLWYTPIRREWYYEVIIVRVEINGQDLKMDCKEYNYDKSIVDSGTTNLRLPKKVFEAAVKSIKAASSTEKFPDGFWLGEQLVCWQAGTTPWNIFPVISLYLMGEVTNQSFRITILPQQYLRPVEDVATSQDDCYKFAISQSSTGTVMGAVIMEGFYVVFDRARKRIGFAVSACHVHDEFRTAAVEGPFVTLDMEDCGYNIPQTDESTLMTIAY
Outline: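 Human BACE1 (residues 1-460) was fused to an IgG1 Fc affinity tag and stably expressed in HEK 293 cells. Using a Multidrop Combi, 7 μL enzyme was added to 0.8 μL compound in dimethylsulphoxide and incubated 10 minutes. Reactions were stopped with 5.5 μL NaOAC Stop solution (pH 9), and TR-FRET fluorescence was read on a Pherastar HTRF module.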

Human BACE2 = biological target: T2, Human BACE2 (Homo sapiens, UniProt Q9Y5Z0); assay: TR-FRET assay; format: biochemical; conditions: enzyme 2.7 μg/mL, substrate 100 nM, pH4.5
T2 construct: the soluble part of the human β-Secretase2 (AA1-AA473) was cloned using BACE2(1-473)-(AVT)-Fc-pDEST12.2 mammalian expression vector; AVT linker (C); made in house
T2 sequence (Q9Y5Z0 21-473): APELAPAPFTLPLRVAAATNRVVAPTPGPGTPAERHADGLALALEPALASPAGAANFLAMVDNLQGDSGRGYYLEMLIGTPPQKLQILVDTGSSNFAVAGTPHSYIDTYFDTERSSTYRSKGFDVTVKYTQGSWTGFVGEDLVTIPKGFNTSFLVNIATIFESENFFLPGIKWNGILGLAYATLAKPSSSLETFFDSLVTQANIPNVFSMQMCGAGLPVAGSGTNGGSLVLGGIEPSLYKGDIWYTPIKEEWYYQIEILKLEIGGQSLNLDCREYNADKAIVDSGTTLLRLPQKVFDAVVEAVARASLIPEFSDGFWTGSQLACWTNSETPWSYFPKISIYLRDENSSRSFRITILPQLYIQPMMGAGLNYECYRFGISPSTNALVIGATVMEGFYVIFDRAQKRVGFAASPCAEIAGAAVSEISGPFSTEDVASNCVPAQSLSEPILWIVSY

Row | SMILES | IC50 (SH-SY5Y cells) | IC50 (Human BACE1) | IC50 (Human BACE2)
1 | [2H]C1([2H])OC(N)=NC12c1cc(-c3cc(Cl)cc(C#N)c3)ccc1C[C@@]21C[C@@H](C)[C@H](OC)[C@@H](C)C1 (stereo partly drawn) [Compound 39, 3-((1r,3R,4r,5S)-2″-amino-4-methoxy-3,5-dimethyl-3′H,5″H-dispiro[cyclohexane-1,2′-indene-1′,4″-oxazol]-6′-yl-5″,5″-d2)-5-chlorobenzonitrile] | 4.3 nM | 4.7 nM | 50.7 nM
2 | [2H]C1([2H])OC(N)=NC12c1cc(C([2H])([2H])C([2H])([2H])C(C)C)ccc1C[C@@]21C[C@@H](C)[C@H](OC)[C@@H](C)C1 (stereo partly drawn) [Compound 40, (1r,3R,4r,5S)-4-methoxy-3,5-dimethyl-6′-(3-methylbutyl-1,1,2,2-d4)-3′H,5″H-dispiro[cyclohexane-1,2′-indene-1′,4″-oxazol]-5″,5″-d2-2″-amine] | 4.4 nM | 32.9 nM | 118 nM
3 | CO[C@H]1CC[C@]2(CC1)Cc1ccc(-c3cncc(C(F)(F)F)c3)cc1C21COC(N)=N1 (stereo partly drawn) [Compound 42, (1r,4r)-4-methoxy-6′-(5-(trifluoromethyl)pyridin-3-yl)-3′H,5″H-dispiro[cyclohexane-1,2′-indene-1′,4″-oxazol]-2″-amine] | 7.3 nM | 307 nM | 221 nM
4 | [2H]C1([2H])OC(N)=NC12c1cc(CCC(C)C)ccc1C[C@@]21C[C@@H](C)[C@H](OC)[C@@H](C)C1 (stereo partly drawn) [Compound 43, (1r,3R,4r,5S)-6′-isopentyl-4-methoxy-3,5-dimethyl-3′H,5″H-dispiro[cyclohexane-1,2′-indene-1′,4″-oxazol]-5″,5″-d2-2″-amine] | 7.5 nM | 13.6 nM | 194 nM
5 | [2H]C1([2H])OC(N)=NC12c1cc(OCCC(F)(F)F)ccc1C[C@]21CC[C@@H](OC)CC1 (stereo partly drawn) [Compound 45, (1r,4r)-4-methoxy-6′-(3,3,3-trifluoropropoxy)-3′H,5″H-dispiro[cyclohexane-1,2′-indene-1′,4″-oxazol]-5″,5″-d2-2″-amine] | 7.8 nM | 289 nM | 589 nM
6 | CO[C@H]1CC[C@]2(CC1)Cc1ccc(-c3cncc(C#N)c3)cc1C21COC(N)=N1 (stereo partly drawn) [Compound 46, 5-((1r,4r)-2″-amino-4-methoxy-3′H,5″H-dispiro[cyclohexane-1,2′-indene-1′,4″-oxazol]-6′-yl)nicotinonitrile] | 8.8 nM | 219 nM | 300 nM
7 | [2H]C1([2H])OC(N)=NC12c1cc(-c3cc(C#N)cc(OC)c3)ccc1C[C@@]21CC[C@H](O)[C@@H](C)C1 (stereo partly drawn) [Compound 49, 3-((1S,3S,4S)-2″-amino-4-hydroxy-3-methyl-3′H,5″H-dispiro[cyclohexane-1,2′-indene-1′,4″-oxazol]-6′-yl-5″,5″-d2)-5-methoxybenzonitrile] | 15.8 nM | 166 nM | 69 nM
8 | CO[C@H]1CC[C@]2(CC1)Cc1ccc(CCC(C)C)cc1C21COC(N)=N1 (stereo partly drawn) [Compound 51, (1r,4r)-6′-isopentyl-4-methoxy-3′H,5″H-dispiro[cyclohexane-1,2′-indene-1′,4″-oxazol]-2″-amine] | 20.6 nM | 188 nM | 306 nM
9 | [2H]C1([2H])OC(N)=NC12c1cc(/C=N/OCCC)ccc1C[C@]21CC[C@@H](OC)CC1 (stereo partly drawn) [Compound 53, (E)-2″-amino-4-methoxy-3′H,5″H-dispiro[cyclohexane-1,2′-indene-1′,4″-oxazole]-5″,5″-d2-6′-carbaldehyde O-propyl oxime] | 24.8 nM | 665 nM | 652 nM
10 | [2H]C1([2H])OC(N)=NC12c1cc(/C=N/OCC)ccc1C[C@]21CC[C@@H](OC)CC1 (stereo partly drawn) [Compound 56, (E)-2″-amino-4-methoxy-3′H,5″H-dispiro[cyclohexane-1,2′-indene-1′,4″-oxazole]-5″,5″-d2-6′-carbaldehyde O-ethyl oxime] | 57 nM | 1630 nM | 3240 nM
11 | [2H]C1([2H])OC(N)=NC12c1cc(-c3cncnc3)ccc1C[C@]21CC[C@@H](O)[C@H](C)C1 (stereo partly drawn) [Compound 57, (1R,3R,4R)-2″-amino-3-methyl-6′-(pyrimidin-5-yl)-3′H,5″H-dispiro[cyclohexane-1,2′-indene-1′,4″-oxazol]-5″,5″-d2-4-ol] | 94.8 nM | 341 nM | > 5000 nM
12 | [2H]C1([2H])OC(N)=NC12c1cc(-c3cc(C#N)cc(OC)c3)ccc1C[C@]21CC[C@@H](O)[C@H](C)C1 (stereo partly drawn) [Compound 58, 3-((1R,3R,4R)-2″-amino-4-hydroxy-3-methyl-3′H,5″H-dispiro[cyclohexane-1,2′-indene-1′,4″-oxazol]-6′-yl-5″,5″-d2)-5-methoxybenzonitrile] | 102 nM | 301 nM | 139 nM
13 | CO[C@H]1CC[C@]2(CC1)Cc1ccc(-c3cccnn3)cc1C21COC(N)=N1 (stereo partly drawn) [Compound 59, (1r,4r)-4-methoxy-6′-(pyridazin-3-yl)-3′H,5″H-dispiro[cyclohexane-1,2′-indene-1′,4″-oxazol]-2″-amine] | 128 nM | 2250 nM | 4990 nM
14 | [2H]C1([2H])OC(N)=NC12c1cc(/C(C)=N/OCCC(F)(F)F)ccc1C[C@]21CC[C@@H](OC)CC1 (stereo partly drawn) [Compound 60, (E)-1-((1r,4r)-2″-amino-4-methoxy-3′H,5″H-dispiro[cyclohexane-1,2′-indene-1′,4″-oxazol]-6′-yl-5″,5″-d2)ethan-1-one O-(3,3,3-trifluoropropyl)oxime] | 206 nM | > 5000 nM | > 5000 nM
15 | [2H]C1([2H])OC(N)=NC12c1cc(/C=N/OC3CCC3)ccc1C[C@]21CC[C@@H](OC)CC1 (stereo partly drawn) [Compound 61, (E)-2″-amino-4-methoxy-3′H,5″H-dispiro[cyclohexane-1,2′-indene-1′,4″-oxazole]-5″,5″-d2-6′-carbaldehyde O-cyclobutyl oxime] | 207 nM | 1960 nM | 3440 nM
16 | CO[C@H]1CC[C@]2(CC1)Cc1ccc(-c3ccnnc3)cc1C21COC(N)=N1 (stereo partly drawn) [Compound 62, (1r,4r)-4-methoxy-6′-(pyridazin-4-yl)-3′H,5″H-dispiro[cyclohexane-1,2′-indene-1′,4″-oxazol]-2″-amine] | 250 nM | > 5000 nM | > 5000 nM
17 | [2H]C1([2H])OC(N)=NC12c1cc(-c3cncnc3)ccc1C[C@@]21CC[C@H](O)[C@@H](C)C1 (stereo partly drawn) [Compound 63, (1S,3S,4S)-2″-amino-3-methyl-6′-(pyrimidin-5-yl)-3′H,5″H-dispiro[cyclohexane-1,2′-indene-1′,4″-oxazol]-5″,5″-d2-4-ol] | 266 nM | 1460 nM | > 5000 nM
18 | CO[C@H]1CC[C@]2(CC1)Cc1ccccc1C21COC(N)=N1 (stereo partly drawn) [Compound 64, (1r,4r)-4-methoxy-3′H,5″H-dispiro[cyclohexane-1,2′-indene-1′,4″-oxazol]-2″-amine] | 307 nM | > 5000 nM | > 5000 nM
19 | [2H]C1([2H])OC(N)=NC12c1cc(/C(C)=N/OCC)ccc1C[C@]21CC[C@@H](OC)CC1 (stereo partly drawn) [Compound 65, (E)-1-((1r,4r)-2″-amino-4-methoxy-3′H,5″H-dispiro[cyclohexane-1,2′-indene-1′,4″-oxazol]-6′-yl-5″,5″-d2)ethan-1-one O-ethyl oxime] | > 5000 nM | > 5000 nM | > 5000 nM
20 | [2H]C1([2H])OC(N)=N[C@]12c1cc(-c3cnccn3)ccc1C[C@]21CC[C@@H](OC)[C@H](C)C1 [Compound 69, (1R,1′R,3R,4R)-4-methoxy-3-methyl-6′-(pyrazin-2-yl)-3′H,5″H-dispiro[cyclohexane-1,2′-indene-1′,4″-oxazol]-5″,5″-d2-2″-amine] | 17 nM | 423 nM | > 5000 nM
21 | [2H]C1([2H])OC(N)=N[C@]12c1cc(-c3cncnc3C)ccc1C[C@@]21CC[C@H](OC)[C@@H](C)C1 [Compound 70, (1S,1′R,3S,4S)-4-methoxy-3-methyl-6′-(4-methylpyrimidin-5-yl)-3′H,5″H-dispiro[cyclohexane-1,2′-indene-1′,4″-oxazol]-5″,5″-d2-2″-amine] | 26.6 nM | 1130 nM | > 5000 nM
22 | [2H]C([2H])([2H])O[C@H]1CC[C@@]2(Cc3ccc(-c4cnccn4)cc3[C@]23N=C(N)OC3([2H])[2H])C[C@@H]1C [Compound 72, (1S,1′R,3S,4S)-4-(methoxy-d3)-3-methyl-6′-(pyrazin-2-yl)-3′H,5″H-dispiro[cyclohexane-1,2′-indene-1′,4″-oxazol]-5″,5″-d2-2″-amine] | 3.6 nM | 203 nM | > 5000 nM
